Assays:
Type in all cases: cell-based
Settings in all cases: compounds at 50 nM and 500 nM
IKZF2 = molecular target: T1, IKZF2 (Homo sapiens, UniProt Q96SW2+Q9UKS7); experiment: Western blot degradation of IKZF2 in hPBMCs (24 h)
T1 construct: The supernatant was aspirated as the extracted total cell protein; endogenous in cells; host or cells: human peripheral blood mononuclear cells (hPBMCs)
Procedure, shortened: (§1)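 Read-out is Western blot band grayscale, divided by internal control band and normalised to give percent target protein remaining; degradation rate is 1 minus that value. Cells were human PBMCs exposed to compound at 50 nM and 500 nM for 24 hours.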

GSPT1 = molecular target: T2, GSPT1 (Homo sapiens, UniProt P15170+Q96SW2); experiment: Western blot degradation of GSPT1 in hPBMCs (24 h)
T2 construct: The supernatant was aspirated as the extracted total cell protein; endogenous in cells; host or cells: human peripheral blood mononuclear cells (hPBMCs)
T2 sequence (P15170 whole entry): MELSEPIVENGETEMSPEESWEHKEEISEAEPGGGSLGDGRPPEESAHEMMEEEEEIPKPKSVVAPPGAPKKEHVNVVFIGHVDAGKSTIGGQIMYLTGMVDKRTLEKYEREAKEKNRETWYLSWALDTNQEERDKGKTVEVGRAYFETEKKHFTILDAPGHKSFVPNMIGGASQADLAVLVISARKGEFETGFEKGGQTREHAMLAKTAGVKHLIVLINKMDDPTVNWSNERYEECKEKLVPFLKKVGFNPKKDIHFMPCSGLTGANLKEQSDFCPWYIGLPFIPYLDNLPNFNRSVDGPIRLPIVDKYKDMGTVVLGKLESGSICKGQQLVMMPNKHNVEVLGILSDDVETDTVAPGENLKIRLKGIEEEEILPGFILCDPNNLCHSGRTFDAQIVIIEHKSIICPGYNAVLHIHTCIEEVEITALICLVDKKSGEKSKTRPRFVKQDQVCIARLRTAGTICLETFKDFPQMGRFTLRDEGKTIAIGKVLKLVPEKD
T2 sequence (Q96SW2 whole entry): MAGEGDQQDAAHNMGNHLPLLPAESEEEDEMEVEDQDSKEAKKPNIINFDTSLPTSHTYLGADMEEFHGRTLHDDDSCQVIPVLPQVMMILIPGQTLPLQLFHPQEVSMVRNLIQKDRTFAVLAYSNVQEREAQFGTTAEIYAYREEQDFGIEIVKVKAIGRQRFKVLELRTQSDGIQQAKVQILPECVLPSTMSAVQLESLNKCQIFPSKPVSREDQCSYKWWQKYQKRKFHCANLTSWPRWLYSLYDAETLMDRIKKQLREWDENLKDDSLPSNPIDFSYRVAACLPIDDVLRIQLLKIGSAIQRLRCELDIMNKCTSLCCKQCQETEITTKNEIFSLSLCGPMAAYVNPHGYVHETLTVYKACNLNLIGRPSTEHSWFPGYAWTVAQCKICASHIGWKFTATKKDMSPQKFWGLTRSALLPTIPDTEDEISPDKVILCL
T2 sequence (Q16531 whole entry partner): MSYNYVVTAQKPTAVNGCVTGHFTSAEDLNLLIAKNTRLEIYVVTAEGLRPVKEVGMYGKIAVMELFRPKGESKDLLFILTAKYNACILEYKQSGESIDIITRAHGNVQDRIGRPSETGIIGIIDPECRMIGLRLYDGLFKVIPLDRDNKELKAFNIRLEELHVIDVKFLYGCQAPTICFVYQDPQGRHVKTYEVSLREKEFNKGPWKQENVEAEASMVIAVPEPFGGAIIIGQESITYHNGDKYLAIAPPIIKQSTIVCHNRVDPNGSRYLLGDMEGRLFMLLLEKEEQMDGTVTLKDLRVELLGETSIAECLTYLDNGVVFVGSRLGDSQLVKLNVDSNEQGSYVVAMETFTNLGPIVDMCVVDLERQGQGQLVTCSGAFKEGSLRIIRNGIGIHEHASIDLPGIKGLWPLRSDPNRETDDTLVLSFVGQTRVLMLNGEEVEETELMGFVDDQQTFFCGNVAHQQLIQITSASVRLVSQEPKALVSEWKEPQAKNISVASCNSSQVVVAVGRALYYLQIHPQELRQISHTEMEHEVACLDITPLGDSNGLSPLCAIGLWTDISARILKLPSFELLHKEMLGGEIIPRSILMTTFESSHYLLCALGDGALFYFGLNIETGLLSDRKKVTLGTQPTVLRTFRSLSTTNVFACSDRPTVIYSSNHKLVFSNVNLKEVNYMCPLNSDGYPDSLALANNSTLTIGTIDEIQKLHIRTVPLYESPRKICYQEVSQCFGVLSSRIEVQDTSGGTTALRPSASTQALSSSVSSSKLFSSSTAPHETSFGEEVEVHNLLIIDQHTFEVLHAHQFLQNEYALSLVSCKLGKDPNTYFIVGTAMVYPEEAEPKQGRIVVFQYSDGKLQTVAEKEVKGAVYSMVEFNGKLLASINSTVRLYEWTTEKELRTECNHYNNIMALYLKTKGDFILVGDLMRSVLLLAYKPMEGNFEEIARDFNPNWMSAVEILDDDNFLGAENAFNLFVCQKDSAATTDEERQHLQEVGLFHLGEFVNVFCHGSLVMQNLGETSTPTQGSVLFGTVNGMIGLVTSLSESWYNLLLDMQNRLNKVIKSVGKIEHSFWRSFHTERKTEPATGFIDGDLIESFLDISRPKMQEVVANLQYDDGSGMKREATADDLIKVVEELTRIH
Procedure, shortened: as §1

CK1α = molecular target: T3, CK1α (Homo sapiens, UniProt P48729+Q96SW2); experiment: Western blot degradation of CK1α in hPBMCs (24 h)
T3 construct: The supernatant was aspirated as the extracted total cell protein; endogenous in cells; host or cells: human peripheral blood mononuclear cells (hPBMCs)
T3 sequence (P48729 whole entry): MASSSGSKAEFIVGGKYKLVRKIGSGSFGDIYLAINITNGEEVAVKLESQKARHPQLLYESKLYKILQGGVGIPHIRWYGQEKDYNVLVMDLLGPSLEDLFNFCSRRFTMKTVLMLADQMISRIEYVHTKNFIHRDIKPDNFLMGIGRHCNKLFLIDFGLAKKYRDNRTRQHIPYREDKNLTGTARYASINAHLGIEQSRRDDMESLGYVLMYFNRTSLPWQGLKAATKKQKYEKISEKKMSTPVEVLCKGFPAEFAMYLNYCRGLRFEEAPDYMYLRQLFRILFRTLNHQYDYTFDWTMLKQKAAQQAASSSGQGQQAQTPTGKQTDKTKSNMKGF
T3 sequence (Q96SW2 whole entry): as the sequence (Q96SW2 whole entry) above
T3 sequence (Q16531 whole entry partner): as the sequence (Q16531 whole entry partner) above
Procedure, shortened: as §1

IKZF3 = molecular target: T4, IKZF3 (Homo sapiens, UniProt Q96SW2+Q9UKT9); experiment: Western blot degradation of IKZF3 in hPBMCs (24 h)
T4 construct: The supernatant was aspirated as the extracted total cell protein; endogenous in cells; host or cells: human peripheral blood mononuclear cells (hPBMCs)
T4 sequence (Q9UKT9 whole entry): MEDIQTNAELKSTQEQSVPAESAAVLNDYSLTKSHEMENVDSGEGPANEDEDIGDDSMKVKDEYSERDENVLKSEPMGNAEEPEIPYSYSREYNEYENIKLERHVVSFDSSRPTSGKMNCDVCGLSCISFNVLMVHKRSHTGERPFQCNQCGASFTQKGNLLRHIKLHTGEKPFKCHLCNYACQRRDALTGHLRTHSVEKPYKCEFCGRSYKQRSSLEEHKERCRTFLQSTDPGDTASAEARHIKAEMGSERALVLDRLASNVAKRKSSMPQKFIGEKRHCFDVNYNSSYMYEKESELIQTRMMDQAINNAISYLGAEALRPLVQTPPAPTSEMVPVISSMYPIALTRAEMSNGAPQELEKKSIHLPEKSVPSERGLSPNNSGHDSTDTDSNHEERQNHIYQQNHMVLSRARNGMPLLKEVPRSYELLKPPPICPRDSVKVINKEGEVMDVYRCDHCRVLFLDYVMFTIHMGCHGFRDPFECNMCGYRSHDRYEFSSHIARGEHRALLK
T4 sequence (Q96SW2 whole entry): as the sequence (Q96SW2 whole entry) above
T4 sequence (Q16531 whole entry partner): as the sequence (Q16531 whole entry partner) above
Procedure, shortened: as §1

IKZF1 = molecular target: T5, IKZF1 (Homo sapiens, UniProt Q13422+Q96SW2); experiment: Western blot degradation of IKZF1 in hPBMCs (24 h)
T5 construct: The supernatant was aspirated as the extracted total cell protein; endogenous in cells; host or cells: human peripheral blood mononuclear cells (hPBMCs)
Procedure, shortened: as §1

WEE1 = molecular target: T6, WEE1 (Homo sapiens, UniProt P30291+Q96SW2); experiment: Western blot degradation of WEE1 in hPBMCs (24 h)
T6 construct: The supernatant was aspirated as the extracted total cell protein; endogenous in cells; host or cells: human peripheral blood mononuclear cells (hPBMCs)
T6 sequence (P30291 whole entry): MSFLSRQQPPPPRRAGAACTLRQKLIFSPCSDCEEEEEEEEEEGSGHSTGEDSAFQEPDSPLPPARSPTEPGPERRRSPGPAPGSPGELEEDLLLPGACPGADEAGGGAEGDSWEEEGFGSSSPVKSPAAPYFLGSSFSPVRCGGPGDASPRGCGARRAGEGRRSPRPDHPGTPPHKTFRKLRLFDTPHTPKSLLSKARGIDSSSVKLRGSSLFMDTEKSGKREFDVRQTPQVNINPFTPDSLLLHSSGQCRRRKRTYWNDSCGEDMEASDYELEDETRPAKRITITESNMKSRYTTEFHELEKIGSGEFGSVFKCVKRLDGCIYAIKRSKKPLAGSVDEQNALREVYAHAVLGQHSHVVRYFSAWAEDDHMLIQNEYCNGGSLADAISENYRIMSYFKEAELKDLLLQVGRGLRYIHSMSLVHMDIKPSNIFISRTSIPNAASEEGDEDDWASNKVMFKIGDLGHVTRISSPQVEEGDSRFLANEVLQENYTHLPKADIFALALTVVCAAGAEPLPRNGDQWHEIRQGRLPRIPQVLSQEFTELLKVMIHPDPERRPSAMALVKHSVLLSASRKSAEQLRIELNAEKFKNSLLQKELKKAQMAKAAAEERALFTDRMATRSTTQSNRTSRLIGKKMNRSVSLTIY
T6 sequence (Q96SW2 whole entry): as the sequence (Q96SW2 whole entry) above
T6 sequence (Q16531 whole entry partner): as the sequence (Q16531 whole entry partner) above
Procedure, shortened: as §1

T1 sequence (Q9UKS7 whole entry): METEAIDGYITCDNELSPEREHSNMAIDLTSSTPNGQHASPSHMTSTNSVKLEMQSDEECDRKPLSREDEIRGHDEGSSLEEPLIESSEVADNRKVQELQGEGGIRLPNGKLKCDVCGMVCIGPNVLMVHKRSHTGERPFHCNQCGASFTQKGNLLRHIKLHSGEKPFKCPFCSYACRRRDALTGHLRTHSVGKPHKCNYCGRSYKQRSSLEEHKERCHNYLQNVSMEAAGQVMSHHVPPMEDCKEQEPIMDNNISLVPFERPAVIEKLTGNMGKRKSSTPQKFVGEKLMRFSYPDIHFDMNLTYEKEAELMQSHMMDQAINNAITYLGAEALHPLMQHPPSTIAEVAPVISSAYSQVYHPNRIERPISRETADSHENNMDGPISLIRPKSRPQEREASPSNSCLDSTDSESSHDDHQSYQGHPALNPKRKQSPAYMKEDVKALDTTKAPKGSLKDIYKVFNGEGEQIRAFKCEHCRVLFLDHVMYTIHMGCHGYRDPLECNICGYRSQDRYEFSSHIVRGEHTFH
T1 sequence (Q96SW2 whole entry): as the sequence (Q96SW2 whole entry) above
T1 sequence (Q16531 whole entry partner): as the sequence (Q16531 whole entry partner) above

Row | Structure (SMILES) | IKZF2 substrate protein remaining % (IKZF2) | GSPT1 substrate protein remaining % (GSPT1) | CK1α substrate protein remaining % (CK1α) | IKZF3 substrate protein remaining % (IKZF3) | IKZF1 substrate protein remaining % (IKZF1) | WEE1 substrate protein remaining % (WEE1)
1 | O=C1CCN(N2C(=O)c3ccc(CN4CCN(c5ncnc6sc7c(c56)CCC7)CC4)cc3C2=O)C(=O)N1 [GT-08103, 5-((4-(6,7-dihydro-5H-cyclopenta[4,5]thieno[2,3-d]pyrimidin-4-yl)piperazin-1-yl)methyl)-2-(2,4-dioxotetrahydropyrimidin-1(2H)-yl)isoindoline-1,3-dione] | A (0% ≤ substrate protein remaining % ≤80%) | B (80%< substrate protein remaining % ≤100%) | B (80%< substrate protein remaining % ≤100%) | A (0% ≤ substrate protein remaining % ≤80%) | B (80%< substrate protein remaining % ≤100%) | B (80%< substrate protein remaining % ≤100%)
2 | Cc1nc(N2CCN(Cc3ccc4c(c3)C(=O)N(N3CCC(=O)NC3=O)C4=O)CC2)c2c3c(sc2n1)CCC3 [GT-08104, 2-(2,4-dioxotetrahydropyrimidin-1(2H)-yl)-5-((4-(2-methyl-6,7-dihydro-5H-cyclopenta[4,5]thieno[2,3-d]pyrimidin-4-yl)piperazin-1-yl)methyl)isoindoline-1,3-dione] | A (0% ≤ substrate protein remaining % ≤80%) | A (0% ≤ substrate protein remaining % ≤80%) | B (80%< substrate protein remaining % ≤100%) | A (0% ≤ substrate protein remaining % ≤80%) | B (80%< substrate protein remaining % ≤100%) | A (0% ≤ substrate protein remaining % ≤80%)
3 | O=C1CCN(N2C(=O)c3ccc(CN4CCN(c5ncc6ccsc6n5)CC4)cc3C2=O)C(=O)N1 [GT-08105, 2-(2,4-dioxotetrahydropyrimidin-1(2H)-yl)-5-((4-(thieno[2,3-d]pyrimidin-2-yl)piperazin-1-yl)methyl)isoindoline-1,3-dione] | A (0% ≤ substrate protein remaining % ≤80%) | A (0% ≤ substrate protein remaining % ≤80%) | B (80%< substrate protein remaining % ≤100%) | A (0% ≤ substrate protein remaining % ≤80%) | B (80%< substrate protein remaining % ≤100%) | B (80%< substrate protein remaining % ≤100%)
4 | O=C1CCN(N2C(=O)c3ccc(CN4CCC(c5ncnc6sccc56)CC4)cc3C2=O)C(=O)N1 [GT-08106, 2-(2,4-dioxotetrahydropyrimidin-1(2H)-yl)-5-((4-(thieno[2,3-d]pyrimidin-4-yl)piperidin-1-yl)methyl)isoindoline-1,3-dione] | B (80%< substrate protein remaining % ≤100%) | A (0% ≤ substrate protein remaining % ≤80%) | B (80%< substrate protein remaining % ≤100%) | B (80%< substrate protein remaining % ≤100%) | B (80%< substrate protein remaining % ≤100%) | A (0% ≤ substrate protein remaining % ≤80%)
5 | Cc1cc2c(C3CCN(Cc4ccc5c(c4)C(=O)N(N4CCC(=O)NC4=O)C5=O)CC3)ncnc2s1 [GT-08107, 2-(2,4-dioxotetrahydropyrimidin-1(2H)-yl)-5-((4-(6-methylthieno[2,3-d]pyrimidin-4-yl)piperidin-1-yl)methyl)isoindoline-1,3-dione] | A (0% ≤ substrate protein remaining % ≤80%) | A (0% ≤ substrate protein remaining % ≤80%) | A (0% ≤ substrate protein remaining % ≤80%) | A (0% ≤ substrate protein remaining % ≤80%) | A (0% ≤ substrate protein remaining % ≤80%) | A (0% ≤ substrate protein remaining % ≤80%)
6 | O=C1CCN(N2C(=O)c3ccc(CN4CCC(c5ncnc6sc(-c7ccccc7)cc56)CC4)cc3C2=O)C(=O)N1 [GT-08108, 2-(2,4-dioxotetrahydropyrimidin-1(2H)-yl)-5-((4-(6-phenylthieno[2,3-d]pyrimidin-4-yl)piperidin-1-yl)methyl)isoindoline-1,3-dione] | A (0% ≤ substrate protein remaining % ≤80%) | A (0% ≤ substrate protein remaining % ≤80%) | A (0% ≤ substrate protein remaining % ≤80%) | A (0% ≤ substrate protein remaining % ≤80%) | A (0% ≤ substrate protein remaining % ≤80%) | A (0% ≤ substrate protein remaining % ≤80%)
7 | O=C1CCN(N2C(=O)c3ccc(CN4CCC(c5ncnc6scc(-c7ccccc7)c56)CC4)cc3C2=O)C(=O)N1 [GT-08109, 2-(2,4-dioxotetrahydropyrimidin-1(2H)-yl)-5-((4-(5-phenylthieno[2,3-d]pyrimidin-4-yl)piperidin-1-yl)methyl)isoindoline-1,3-dione] | A (0% ≤ substrate protein remaining % ≤80%) | A (0% ≤ substrate protein remaining % ≤80%) | A (0% ≤ substrate protein remaining % ≤80%) | A (0% ≤ substrate protein remaining % ≤80%) | A (0% ≤ substrate protein remaining % ≤80%) | A (0% ≤ substrate protein remaining % ≤80%)
8 | Cc1nc(C2CCN(Cc3ccc4c(c3)C(=O)N(N3CCC(=O)NC3=O)C4=O)CC2)c2c(-c3ccccc3)csc2n1 [GT-08110, 2-(2,4-dioxotetrahydropyrimidin-1(2H)-yl)-5-((4-(2-methyl-5-phenylthieno[2,3-d]pyrimidin-4-yl)piperidin-1-yl)methyl)isoindoline-1,3-dione] | A (0% ≤ substrate protein remaining % ≤80%) | A (0% ≤ substrate protein remaining % ≤80%) | A (0% ≤ substrate protein remaining % ≤80%) | A (0% ≤ substrate protein remaining % ≤80%) | A (0% ≤ substrate protein remaining % ≤80%) | A (0% ≤ substrate protein remaining % ≤80%)
9 | Cc1nc(C2CCN(Cc3ccc4c(c3)C(=O)N(N3CCC(=O)NC3=O)C4=O)CC2)c2c3c(sc2n1)CCCC3 [GT-08111, 2-(2,4-dioxotetrahydropyrimidin-1(2H)-yl)-5-((4-(2-methyl-5,6,7,8-tetrahydrobenzo[4,5]thieno[2,3-d]pyrimidin-4-yl)piperidin-1-yl)methyl)isoindoline-1,3-dione] | B (80%< substrate protein remaining % ≤100%) | A (0% ≤ substrate protein remaining % ≤80%) | A (0% ≤ substrate protein remaining % ≤80%) | B (80%< substrate protein remaining % ≤100%) | B (80%< substrate protein remaining % ≤100%) | B (80%< substrate protein remaining % ≤100%)
10 | O=C1CCN(N2Cc3cc(CN4CCC(c5ncnc6sc7c(c56)CCCC7)CC4)ccc3C2=O)C(=O)N1 [GT-08112, 1-(1-oxo-5-((4-(5,6,7,8-tetrahydrobenzo[4,5]thieno[2,3-d]pyrimidin-4-yl)piperidin-1-yl)methyl)isoindolin-2-yl)dihydropyrimidine-2,4(1H,3H)-dione] | B (80%< substrate protein remaining % ≤100%) | A (0% ≤ substrate protein remaining % ≤80%) | B (80%< substrate protein remaining % ≤100%) | B (80%< substrate protein remaining % ≤100%) | B (80%< substrate protein remaining % ≤100%) | B (80%< substrate protein remaining % ≤100%)
11 | O=C1CCN(N2Cc3cc(CN4CCC(c5ncnc6sc7c(c56)CCC7)CC4)ccc3C2=O)C(=O)N1 [GT-08113, 1-(5-((4-(6,7-dihydro-5H-cyclopenta[4,5]thieno[2,3-d]pyrimidin-4-yl)piperidin-1-yl)methyl)-1-oxoisoindolin-2-yl)dihydropyrimidine-2,4(1H,3H)-dione] | B (80%< substrate protein remaining % ≤100%) | A (0% ≤ substrate protein remaining % ≤80%) | A (0% ≤ substrate protein remaining % ≤80%) | B (80%< substrate protein remaining % ≤100%) | B (80%< substrate protein remaining % ≤100%) | B (80%< substrate protein remaining % ≤100%)
12 | Cc1nc(C2CCN(Cc3ccc4c(c3)CN(N3CCC(=O)NC3=O)C4=O)CC2)c2c3c(sc2n1)CCC3 [GT-08114, 1-(5-((4-(2-methyl-6,7-dihydro-5H-cyclopenta[4,5]thieno[2,3-d]pyrimidin-4-yl)piperidin-1-yl)methyl)-1-oxoisoindolin-2-yl)dihydropyrimidine-2,4(1H,3H)-dione] | B (80%< substrate protein remaining % ≤100%) | A (0% ≤ substrate protein remaining % ≤80%) | B (80%< substrate protein remaining % ≤100%) | B (80%< substrate protein remaining % ≤100%) | B (80%< substrate protein remaining % ≤100%) | B (80%< substrate protein remaining % ≤100%)
